Measured values reported in patent publication US20050261290A1, “Novel compounds of proline and morpholine derivatives” (priority 2004, published 2005).
Like-named read-outs stand apart in the source and are kept apart here.

Molecular target: human 11b-hsd-1 (Homo sapiens, UniProt P28845)
Experiment: Inhibition constant Ki of human 11b-hsd-1 (3H-cortisone to 3H-cortisol conversion, HPLC)
Type: biochemical
Conditions: for Ki: apparent Ki, read-out: Ki app
Experimental: In each well, varying amounts of compounds are incubated with a fixed amount of 11b-hsd-1 (4 nM) and NADPH (500 μM) for 30 to 40 min at room temperature in the assay buffer. The enzyme concentration was determined by titration using reversible tight-binding inhibitors. […] The area of 3H-cortisol is calculated and plotted versus time to determine a linear velocity. […] Where vi, and vo are the rates of cortisol formation in the presence and in the absence of inhibitor, respectively, I is the inhibitor concentration and E is the 11 b-hsd-1 concentration in the assay buffer. […] NADPH, Glucose-6-Phosphate (G6P), and Glucose-6-Phosphate dehydrogenase was purchased from Sigma.

Chain of human 11b-hsd-1 (P28845 whole entry): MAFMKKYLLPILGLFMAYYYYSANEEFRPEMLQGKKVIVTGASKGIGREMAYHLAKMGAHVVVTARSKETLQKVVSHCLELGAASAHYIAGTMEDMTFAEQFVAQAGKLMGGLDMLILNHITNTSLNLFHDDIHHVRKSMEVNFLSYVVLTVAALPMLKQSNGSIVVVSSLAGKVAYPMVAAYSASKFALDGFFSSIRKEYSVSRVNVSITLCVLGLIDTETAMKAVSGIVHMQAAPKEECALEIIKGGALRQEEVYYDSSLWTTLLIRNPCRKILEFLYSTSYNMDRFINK

inhibition at 0.1 µM (0.1 μM compound) [%]	Ki [nM]	Ki (human 11b-hsd-1) [nM]	inhibition at 0.1 µM (compound at 0.1 μM) [%]	Structure (SMILES)
100	5.9			O=C(NC12CC3CC(CC(C3)C1)C2)[C@H]1CCCC[C@H]1NCc1ccc(Cl)cc1 (racemic) [Example 201]
100	1			O=C(NC12CC3CC(CC(C3)C1)C2)[C@@H]1[C@H]2CC[C@H](C2)N1Cc1ccc(Cl)cc1 (racemic) [Example 204]
100	1			O=C(NC12CC3CC(CC(C3)C1)C2)[C@H]1[C@H]2CC[C@H](C2)N1Cc1ccc(Cl)cc1 (relative stereo) [Example 203]
100	1.9			CC(C)CN1[C@H]2CC[C@H](C2)[C@H]1C(=O)NC12CC3CC(CC(C3)C1)C2 (relative stereo) [Example 209]
100	1			CC(C)CN1[C@H]2CC[C@H](C2)[C@@H]1C(=O)NC12CC3CC(CC(C3)C1)C2 (relative stereo) [Example 210]
			65	CC(C)CN1CCOC[C@@H]1C(=O)NCc1cccc(F)c1 [Example 33]
		18	79	CC(C)CN1CCOC[C@@H]1C(=O)NCc1ccc(F)cc1 [Example 34]
		22.6	82	CCOc1ccccc1CNC(=O)[C@H]1COCCN1CC(C)C [Example 35]
		21.4	90	CN(Cc1ccc(F)cc1)C(=O)[C@H]1COCCN1Cc1ccc(C#N)cc1 [Example 36]
		39.3	100	CC(C)CN1CCOC[C@@H]1C(=O)N(C)Cc1ccc(F)cc1 [Example 37]
		7.9	90.4	CCCN1CCC[C@@H]1C(=O)NC1Cc2ccccc2C1 [Example 38]
		< 1	100	O=C(NC1CCc2ccccc21)[C@H]1CCCN1CC1CCCC1 (stereo partly shown) [Example 39]
		19	100	Cc1ncccc1CNC(=O)[C@H]1CCCN1CC(C)C [Example 40]
		< 1	100	O=C(NC1C2CC3CC(C2)CC1C3)[C@H]1CCCN1Cc1ccccn1 (stereo partly shown) [Example 41]
			0	CN1CCC(CN2C[C@H](O)C[C@@H]2C(=O)NC2CCCCC2)CC1 [Example 42, (4R)-N-cyclohexyl-4-hydroxy-1-[(1-methylpiperidin-4-yl)methyl]-D prolinamide]
			31.9	CN(C)CCN1C[C@H](O)C[C@@H]1C(=O)NC1C2CC3CC(C2)CC1C3 (stereo partly shown) [Example 43]
			59.4	CN(C)CCN1CCOC[C@@H]1C(=O)NC1C2CC3CC(C2)CC1C3 (stereo partly drawn) [Example 44, (3R)-N-2-adamantyl-4-[2-(dimethylamino)ethyl]morpholine-3-carboxamide]
			81	NC1C[C@H](C(=O)NC2C3CC4CC(C3)CC2C4)N(CC2CCCC2)C1 (stereo partly drawn) [Example 45, N-2-adamantyl-4-amino-1-(cyclopentylmethyl)-D-prolinamide]
			38	CN1CCC(CN2C[C@H](O)C[C@@H]2C(=O)NC2C3CC4CC(C3)CC2C4)CC1 (stereo partly drawn) [Example 47, (4R)-N-2-adamantyl-4-hydroxy-1-[(1-methylpiperidin-4-yl)methyl]-D prolinamide]
			83	O=C(NC1C2CC3CC(C2)CC1C3)[C@H]1C[C@@H](O)CN1CC1CCOCC1 (stereo partly shown) [Example 48]

The remaining lines, values behind:

Structure (SMILES)	inhibition at 0.1 µM (0.1 μM compound) [%]	Ki [nM]	Ki (human 11b-hsd-1) [nM]	inhibition at 0.1 µM (compound at 0.1 μM) [%]
CCN1CCOC[C@@H]1C(=O)NC1C2CC3CC(C2)CC1C3 (stereo partly drawn) [Example 1, (R)-4-Ethyl-morpholine-3-carboxylic acid adamantan-2-ylamide]			2.1	100
O=C(NC1C2CC3CC(C2)CC1C3)[C@H]1COCCN1Cc1ccccc1 (stereo partly shown) [Example 2]			2.4	100
O=C(NCc1ccccc1)[C@H]1CCCN1CC1CCCCC1 [Example 3, N-benzyl-1-(cyclohexylmethyl)-D-prolinamide]			15	92
CC(C)CN1CCC[C@@H]1C(=O)NCc1ccccc1 [Example 4]			3.6	94
O=C(NCc1ccccc1)[C@@H]1CCCN1CC1CCCCC1 [Example 5, N-benzyl-1-(cyclohexylmethyl)-L-prolinamide]				29
O=C(NC12CC3CC(CC(C3)C1)C2)[C@H]1CCCN1CC1CCCCC1 [Example 9, N-1-adamantyl-1-(cyclohexylmethyl)-D-prolinamide]			1.7	100
O=C(NC12CC3CC(CC(C3)C1)C2)[C@H]1CCCN1Cc1ccc(Cl)cc1 [Example 10]			0.85	100
CN(C(=O)[C@H]1COCCN1CC1CCCCC1)C1CCCCC1 [Example 11, (3R)-N-cyclohexyl-4-(cyclohexylmethyl)-N-methylmorpholine-3-carboxamide]			38.3	80
CCN1CCCC[C@@H]1C(=O)NC12CC3CC(CC(C3)C1)C2 [Example 12]			14	89
O=C(NCc1ccc(Cl)cc1)[C@H]1CCCN1CC1CCCCC1 [Example 13]			1	85
CC(=O)N1CCC[C@@H]1C(=O)NC1C2CC3CC(C2)CC1C3 (stereo partly drawn) [Example 18, N-2-adamantyl-1-acetyl-D-prolinamide]			16.4	85
NC(=O)CN1CCC[C@@H]1C(=O)NC1C2CC3CC(C2)CC1C3 (stereo partly shown) [Example 19]			17	86
CN1CCC[C@@H]1C(=O)NC12CC3CC(CC(C3)C1)C2 [Example 20]			23.3	72
CCCN1CCC[C@@H]1C(=O)NC12CC3CC(CC(C3)C1)C2 [Example 21]			1.2	100
O=C(NC12CC3CC(CC(C3)C1)C2)[C@H]1CCCN1CC(F)(F)F [Example 22]			0.85	100
CCN1CCC[C@@H]1C(=O)NC12CC3CC(CC(C3)C1)C2 [Example 23]			2.6	94
CCN1C[C@H](O)C[C@@H]1C(=O)NC1C2CC3CC(C2)CC1C3 (stereo partly shown) [Example 24]			1.4	100
CC(C)CN1C[C@H](O)C[C@@H]1C(=O)NC1C2CC3CC(C2)CC1C3 (stereo partly shown) [Example 25]			1.7	100
O=C(NC1C2CC3CC(C2)CC1C3)[C@H]1C[C@@H](O)CN1Cc1ccccc1 (stereo partly shown) [Example 26]			1	100
O=C(NC1C2CC3CC(C2)CC1C3)[C@H]1C[C@@H](O)CN1Cc1ccc(F)cc1 (stereo partly shown) [Example 27]			1.1	100
O=C(NC1C2CC3CC(C2)CC1C3)[C@H]1C[C@@H](O)CN1CC1CCCC1 (stereo partly drawn) [Example 28, (4R)-N-2-adamantyl-1-cyclopentylmethyl-4-hydroxy-D-prolinamide]			1	100
CC(C)CN1C[C@H](O)C[C@@H]1C(=O)NC1CCCCC1 [Example 29]			39.2	69
O=C(NC1CCCCC1)[C@H]1C[C@@H](O)CN1CC1CCCC1 [Example 30]				63
O=C(NC1CCCCC1)[C@H]1C[C@@H](O)CN1Cc1ccc(F)cc1 [Example 31]				53
CC(C)CN1CCOC[C@@H]1C(=O)NCc1c(F)cccc1F [Example 32]				67
